This is an account of results in patent publication US8871934B2, “Fluorene compound and pharmaceutical use thereof” (Japan Tobacco Inc., priority 2008, dated 2014).

Like-named read-outs stand apart in the source and are kept apart here.

In the assay the target is human PDHK2 (hPDHK2) (Homo sapiens (Human), UniProt Q15119). Put plainly: Inhibitory action of PDHK activity in vitro (kinase reaction, residual PDH activity measured). Type of assay: biochemical.
Setting [1] is: read-out: PDHK inhibitory activity (class symbol).
Setting [2] is: read-out: PDHK inhibitory activity IC50.
The mark [3] stands for this setting: PDHK inhibitory activity, class symbol of IC50.
The mark [4] stands for this setting: PDHK inhibitory activity (class symbol).
[5] abbreviates: PDHK inhibitory activity IC50 (μmol/L).

For `N#CCc1cc(Cl)cc2c1-c1ccccc1C2(O)C(F)(F)F` (stereo not drawn) [compound 625], the IC50 was over 1000 nM under setting [1] and over 1000 nM under setting [2].
For the compound `CC(C)(C)C(=O)N1CCN(c2cc(-c3cccnc3)c3c(c2)C(O)(C(F)(F)F)c2ccccc2-3)CC1` (stereo not drawn) [compound 285], the IC50 runs as follows: under setting [3], under 100 nM; under setting [2], 20 nM.
Regarding `Cn1cc(-c2cc(C(=O)O)cc3c2-c2ccccc2C3(O)C(F)(F)F)cn1` (stereo not drawn) [compound 344], the IC50 is, setting by setting: (class symbol of IC50, read-out: PDHK inhibitory activity) over 1000 nM; under setting [2], over 1000 nM.
As for `O=C1CCCN1CCOc1cc(-c2cn[nH]c2)c2c(c1)C(O)(C(F)(F)F)c1ccccc1-2` (stereo not drawn) [compound 491], the IC50 by setting is: under setting [3], under 100 nM; under setting [2], 20 nM.
For the compound `Cc1cc(-c2cnn(C(CO)CO)c2)c2c(c1)C(O)(C(F)(F)F)c1ccccc1-2` (single isomer, unassigned) [compound 605], the IC50 is, setting by setting: under setting [4], under 100 nM; under setting [2], 19 nM.
As to `O=C(O)CCCCCOc1ccc2c(c1)C(O)(C(F)(F)F)c1ccccc1-2` (stereo not drawn) [compound 318], the IC50 reads like this: under setting [3], 100 to 1000 nM; under setting [2], 553 nM.
For `CN(CCOc1cc(Cl)c2c(c1)C(O)(C(F)(F)F)c1ccccc1-2)S(C)(=O)=O` (stereo not drawn) [compound 408], in that order: under 100 nM and 65 nM.
In the case of `O=C(COc1cc(-c2cnn(CCO)c2)c2c(c1)C(O)(C(F)(F)F)c1ccccc1-2)N1CC(O)C1` (stereo not drawn) [compound 497], the IC50 is under 100 nM under setting [3] and 31 nM under setting [2].
The corresponding values for `Cn1cc(-c2cc(CO)cc3c2-c2ccccc2C3(O)C(F)(F)F)cn1` (stereo not drawn) [compound 557] are under 100 nM and 77 nM.
For `O=C(O)C1CCN(c2ccc3c(c2)C(O)(C(F)(F)F)c2ccccc2-3)CC1` (stereo not drawn) [compound 222], in that order: over 1000 nM and 5390 nM.
For `Cc1cc(C)c2c(c1)C(O)(C(F)(F)F)c1ccccc1-2` (stereo not drawn) [compound 18], in that order: 100 to 1000 nM and 457 nM.
Consider `COC(=O)COc1cc(Br)c2c(c1)C(O)(C(F)(F)F)c1ccccc1-2` (single isomer, unassigned) [compound 452], for which the IC50 was over 1000 nM under setting [3] and 2720 nM under setting [2].
In the case of `OC1(C(F)(F)F)c2ccccc2-c2c(C3CC3)cccc21` (stereo not drawn) [compound 268], the IC50 is over 1000 nM under setting [3] and over 10000 nM under setting [2].
Take `Cn1cc(-c2cc(CC(N)=O)c3c(c2)C(O)(C(F)(F)F)c2ccccc2-3)cn1` (stereo not drawn) [compound 637]: the IC50 is, setting by setting: under setting [1], over 1000 nM; under setting [2], over 1000 nM.
For `Cn1nnnc1-c1cccc2c1-c1ccccc1C2(O)C(F)(F)F` (stereo not drawn) [compound 251], the IC50 reads like this: under setting [3], over 1000 nM; under setting [2], over 10000 nM.
The corresponding values for `O=C(O)CCCOc1cc(-c2cn[nH]c2)c2c(c1)C(O)(C(F)(F)F)c1ccccc1-2` (stereo not drawn) [compound 498] are under 100 nM and 47 nM.
The corresponding values for `Cc1n[nH]c(-c2cccc3c2-c2ccccc2C3(O)C(F)(F)F)n1` (stereo not drawn) [compound 313] are over 1000 nM and over 10000 nM.
The corresponding values for `OC1(C(F)(F)F)c2ccccc2-c2ccc(F)cc21` (stereo not drawn) [compound 4] are over 1000 nM and 2290 nM.
With `OCCCCCOc1cc(-c2cncnc2)c2c(c1)C(O)(C(F)(F)F)c1ccccc1-2` (stereo not drawn) [compound 406], the IC50 is, setting by setting: under setting [3], under 100 nM; under setting [2], 25 nM.
`COc1cc(-c2cnn(CCCC(=O)O)c2)c2c(c1)C(O)(C(F)(F)F)c1ccccc1-2` (single isomer, unassigned) [compound 589]: the IC50 is under 100 nM under setting [3] and 25 nM under setting [2].
For `O=C1CCC(COc2ccc3c(c2)C(O)(C(F)(F)F)c2ccccc2-3)N1` (stereo not drawn) [compound 419], in that order: 100 to 1000 nM and 504 nM.
For `CCOC(=O)c1ccccc1-c1ccc2c(c1)C(O)(C(F)(F)F)c1ccccc1-2` (stereo not drawn) [compound 173], in that order: over 1000 nM and over 10000 nM.
For `CCOC(=O)CCCOc1ccc2c(c1)C(O)(C(F)(F)F)c1ccccc1-2` (stereo not drawn) [compound 257], in that order: 100 to 1000 nM and 567 nM.
In turn, `CNC(=O)Cn1cc(-c2cc(F)cc3c2-c2ccccc2[C@]3(O)C(F)(F)F)cn1` (stereo in doubt) [compound 534] returned an IC50 under setting [5] of 16 nM and an IC50 under setting [3] of under 100 nM.
Consider `CC(C)(C)Cn1cc(-c2cc(CO)c3c(c2)C(O)(C(F)(F)F)c2ccccc2-3)cn1` (stereo not drawn) [compound 650], for which the IC50 is under 100 nM under setting [4] and 36 nM under setting [2].
Regarding `CN(C)C(=O)COc1cc(-c2cnn(C)c2)c2c(c1)C(O)(C(F)(F)F)c1ccccc1-2` (stereo not drawn) [compound 457], the IC50 by setting is: under setting [3], under 100 nM; under setting [2], 30 nM.
In the case of `CN(C)c1ccc2c(c1)C(O)(C(F)(F)F)c1ccccc1-2` (stereo not drawn) [compound 80], the IC50 runs as follows: under setting [3], over 1000 nM; under setting [2], 8240 nM.
Regarding `COC(=O)Nc1cccc2c1-c1ccccc1C2(O)C(F)(F)F` (stereo not drawn) [compound 130], the IC50 reads like this: under setting [3], over 1000 nM; under setting [2], over 10000 nM.
Consider `CN(CCOc1cc(Cl)c2c(c1)C(O)(C(F)(F)F)c1ccccc1-2)C(=O)CO` (stereo not drawn) [compound 409], for which the IC50 was under 100 nM under setting [3] and 67 nM under setting [2].
The corresponding values for `CCN(CC)C(=O)c1ccc2c(c1)C(O)(C(F)(F)F)c1ccccc1-2` (stereo not drawn) [compound 54] are over 1000 nM and 21900 nM.
The corresponding values for `CCCc1ccc2c(c1)C(O)(C(F)(F)F)c1ccccc1-2` (stereo not drawn) [compound 70] are over 1000 nM and 2210 nM.
As to `O=C(O)Cc1ccc2c(c1)C(O)(C(F)(F)F)c1ccccc1-2` (stereo not drawn) [compound 402], the IC50 reads like this: under setting [3], over 1000 nM; under setting [2], over 10000 nM.
For `COc1ccc2c(c1)-c1ccccc1C2(O)C(F)(F)F` (stereo not drawn) [compound 47], in that order: over 1000 nM and 4910 nM.
In the case of `Cc1cc(Cl)c2c(c1)[C@](O)(C(F)(F)F)c1ccccc1-2` (stereo in doubt) [compound 520], the IC50 by setting is: under setting [5], 3330 nM; under setting [3], over 1000 nM.
For `OCC(CO)(CO)n1cc(-c2cccc3c2-c2ccccc2C3(O)C(F)(F)F)cn1` (single isomer, unassigned) [compound 706], the IC50 is under 100 nM under setting [4] and 31 nM under setting [2].
As to `NCCOc1ccc2c(c1)C(O)(C(F)(F)F)c1ccccc1-2` (stereo not drawn) [compound 320], the IC50 is over 1000 nM under setting [3] and 8760 nM under setting [2].
The corresponding values for `OCCCn1cc(-c2cccc3c2-c2ccccc2C3(O)C(F)(F)F)cn1` (stereo not drawn) [compound 436] are under 100 nM and 65 nM.
The corresponding values for `O=S1(=O)CCCN1CCOc1ccc2c(c1)C(O)(C(F)(F)F)c1ccccc1-2` (stereo not drawn) [compound 468] are 100 to 1000 nM and 327 nM.
The corresponding values for `O=C(COc1ccc2c(c1)C(O)(C(F)(F)F)c1ccccc1-2)N1CCC1` (stereo not drawn) [compound 391] are 100 to 1000 nM and 485 nM.
As for `CCCNC(=O)c1ccc2c(c1)C(O)(C(F)(F)F)c1ccccc1-2` (stereo not drawn) [compound 316], the IC50 is over 1000 nM under setting [3] and 4480 nM under setting [2].
For `CC(C)Cc1cc(-c2cnn(C(CO)CO)c2)c2c(c1)C(O)(C(F)(F)F)c1ccccc1-2` (stereo not drawn) [compound 648], the IC50 is, setting by setting: under setting [4], under 100 nM; under setting [2], 44 nM.
`CCCOc1ccc2c(c1)C(O)(C(F)(F)F)c1ccccc1-2` (stereo not drawn) [compound 265]: the IC50 was over 1000 nM under setting [3] and 1260 nM under setting [2].
For `Cn1cc(-c2cc(N3CCC(C(=O)O)CC3)cc3c2-c2ccccc2C3(O)C(F)(F)F)cn1` (stereo not drawn) [compound 558], in that order: under 100 nM and 81 nM.
The corresponding values for `O=C(O)C1CN(C(=O)c2ccc3c(c2)C(O)(C(F)(F)F)c2ccccc2-3)C1` (stereo not drawn) [compound 121] are over 1000 nM and 3680 nM.
For `OC1(C(F)(F)F)c2ccccc2-c2ccc(-n3cccn3)cc21` (stereo not drawn) [compound 560], in that order: 100 to 1000 nM and 970 nM.
For `CN(C)C(=O)c1ccc(-c2ccc3c(c2)C(O)(C(F)(F)F)c2ccccc2-3)cc1Cl` (stereo not drawn) [compound 241], the IC50 runs as follows: under setting [3], under 100 nM; under setting [2], 98 nM.
The corresponding values for `OCCOc1ccc2c(c1)C(O)(C(F)(F)F)c1ccccc1-2` (stereo not drawn) [compound 292] are over 1000 nM and 2570 nM.
For `O=C(O)c1ccc(-c2cc(-c3cccnc3)c3c(c2)C(O)(C(F)(F)F)c2ccccc2-3)cc1` (stereo not drawn) [compound 342], in that order: under 100 nM and 47 nM.
The corresponding values for `Cc1ccc2c(c1)C(O)(C(F)(F)F)c1cccnc1-2` (stereo not drawn) [compound 16] are over 1000 nM and 19300 nM.
For the compound `O=C(c1cc(CO)c2c(c1)C(O)(C(F)(F)F)c1ccccc1-2)N1CC(O)C1` (stereo not drawn) [compound 644], the IC50 is, setting by setting: under setting [4], 100 to 1000 nM; under setting [2], 130 nM.
Consider `CCNC(=O)Cn1cc(-c2cccc3c2-c2ccccc2C3(O)C(F)(F)F)cn1` (stereo not drawn) [compound 511], for which the IC50 under setting [3] was under 100 nM and the IC50 under setting [2] was determined as 56 nM.
Regarding `Cn1cc(-c2cc(OC(CO)CO)cc3c2-c2ccccc2C3(O)C(F)(F)F)cn1` (stereo not drawn) [compound 628], the IC50 reads like this: under setting [4], under 100 nM; under setting [2], 58 nM.
For the compound `Oc1ccc2c(c1)-c1ccccc1C2(O)C(F)(F)F` (stereo not drawn) [compound 62], the IC50 reads like this: under setting [3], over 1000 nM; under setting [2], 15700 nM.
The corresponding values for `Cc1ccccc1-c1ccc2c(c1)C(O)(C(F)(F)F)c1ccccc1-2` (stereo not drawn) [compound 151] are over 1000 nM and 5210 nM.
For the compound `COC(=O)c1cc(Cl)cc2c1-c1ccccc1C2(O)C(F)(F)F` (single isomer, unassigned) [compound 617], the IC50 is, setting by setting: under setting [4], under 100 nM; under setting [2], 84 nM.
For `NCCCOc1ccc2c(c1)C(O)(C(F)(F)F)c1ccccc1-2` (stereo not drawn) [compound 331], the IC50 was over 1000 nM under setting [3] and 1420 nM under setting [2].
For `Cn1cc(-c2cc(OCCCCCO)cc3c2-c2ccccc2C3(O)C(F)(F)F)cn1` (stereo not drawn) [compound 407], in that order: under 100 nM and 31 nM.
